Test results: PubChem BioAssay AID1996
≈ marks a conversion by molar mass, not a printed value.

Conditions: buffer; pH 7.4; 200.0 µM

Row | Compound | solubility kinetic
1 | C=CCn1c(O)c(C(C)=NCC2CCCO2)c(=O)[nH]c1=O (centres undefined) | > 44 µg/mL
2 | Cc1ccc(C)c(NCc2ccccc2CO)c1 | > 36.2 µg/mL
3 | Cc1c(C)n(CCc2ccccc2)c2ncnc(NCCO)c12 | > 46.6 µg/mL
4 | CC(NC(=O)CCc1c[nH]c2ccccc12)c1ccccc1 (centres undefined) | > 43.9 µg/mL
5 | Cc1ccc(C(=O)NCCCNC(=O)c2ccccc2C)cn1 | > 46.7 µg/mL
6 | Cc1ccc(CCC(=O)Nc2ccc(CC(=O)O)cc2)o1 | > 43.1 µg/mL
7 | Cc1ccc(SCC(=O)NCCc2ccccc2)cc1 | 20.7 µg/mL (≈ 72.5 µM)
8 | Cc1ccc(NC(=O)C2CCN(C(=O)c3cccs3)CC2)cc1 | > 49.3 µg/mL
9 | COc1ccc(NC(=O)Nc2cc(C(C)(C)C)on2)cc1OC | > 47.9 µg/mL
10 | O=S(=O)(/N=C(/Nc1cccnc1Cl)c1ccccc1)c1ccccc1 | > 55.8 µg/mL
11 | COc1ccc(C2NC(=S)NC3=C2N2CCC3CC2)cc1 (centres undefined) | > 45.2 µg/mL
12 | O=C(NCCCn1ccnc1)c1ccccc1Cl | > 39.6 µg/mL
13 | O=C(Nc1cccc(C(F)(F)F)c1)c1sc(Cl)nc1C(F)(F)F | 36.3 µg/mL (≈ 96.9 µM)
14 | Cc1ccc(C(=O)NCC(C)NC(=O)c2ccc(C)c([N+](=O)[O-])c2)cc1[N+](=O)[O-] (centres undefined) | 1.8 µg/mL (≈ 4.5 µM)
15 | O=C(Sc1ccc(Cl)cc1)c1ccccn1 | 1.7 µg/mL (≈ 6.81 µM)
16 | CCOc1ccccc1/C=C(\C(=O)O)c1ccc(S(=O)(=O)N2CCCCC2)s1 | > 63.2 µg/mL
17 | O=[N+]([O-])c1cc(CSC2=NCCN2)ccc1O | 37.1 µg/mL (≈ 146 µM)
18 | CN1C(=O)/C(=C/c2ccc(OCc3cccc(F)c3)cc2)NC1=S | < 0.4 µg/mL
19 | O=C(CSc1nc2ccccc2s1)NC1CCCC1 | 38.6 µg/mL (≈ 132 µM)
20 | O=C(COC(=O)CCSc1ccc(F)cc1)NCc1ccc(F)cc1 | 26.5 µg/mL (≈ 72.5 µM)

Row | Compound | solubility kinetic
21 | COC(=O)c1ccc(N=C2SCC(=O)N2C)cc1 | > 39.6 µg/mL
22 | COc1cc2nc(CN3CCN(S(=O)(=O)c4ccccc4C(F)(F)F)CC3)[nH]c(=O)c2cc1OC | 12.4 µg/mL (≈ 24.2 µM)
23 | CCOC(=O)N1CCN(CCC(=O)Nc2ccccc2)CC1 | 32.2 µg/mL (≈ 105 µM)
24 | CC1=C/C(=C/N(C)C)C(=O)O1 | 15.7 µg/mL (≈ 102 µM)
25 | CC(=O)c1cccc(NC(=O)COC(=O)CCC(=O)c2ccc(F)cc2)c1 | 53.9 µg/mL (≈ 145 µM)
26 | CCNC(=S)NC1CC2CCCC(C1)N2Cc1ccc(C)cc1 (centres undefined) | 47.7 µg/mL (≈ 144 µM)
27 | Oc1ccc(-c2nccc(-c3ccc(Br)cc3)n2)cc1 | 0.4 µg/mL (≈ 1.22 µM)
28 | O=c1[nH]c(/C=C/c2ccccc2Cl)nc2ccccc12 | < 0.3 µg/mL
29 | Nc1c(Br)c(=O)[nH]c(=O)n1-c1ccccc1 | > 42.3 µg/mL
30 | CCC(C)[C@H](NC(=O)N1CCCCCC1)C(=O)O (some centres undefined) | > 38.5 µg/mL
31 | O=C(O)c1cc(NS(=O)(=O)c2ccc(F)cc2)cc(NS(=O)(=O)c2ccc(F)cc2)c1 | > 70.3 µg/mL
32 | Clc1ccc(Cl)c(OCCCCN2CCCCC2)c1 | 29.5 µg/mL (≈ 97.6 µM)
33 | O=S(=O)(c1ccc(=S)[nH]c1)N1CCCC1 | > 36.6 µg/mL
34 | COc1ccc(CCNC(=O)C(=O)NCC2CCNCC2)cc1OC | > 52.4 µg/mL
35 | COCC(=O)N1CCCC(CNS(=O)(=O)c2ccc(OC)cc2)C1 (centres undefined) | > 53.5 µg/mL
36 | Cc1cccc(NC(=O)CN(C)C(=O)C2CC2)c1C | > 39.1 µg/mL
37 | COc1cccc(NC(=O)CN(C)CC(=O)NCc2ccc(F)cc2)c1 | > 53.9 µg/mL
38 | NC(=O)CC1C(=O)N(c2ccccc2)C(=S)N1NC(=O)c1ccccc1 (centres undefined) | > 55.3 µg/mL
39 | CC1(C)Nc2ccccc2N(Cc2ccc([N+](=O)[O-])cc2)C1=O | > 46.7 µg/mL
40 | Cc1ccc(NS(=O)(=O)c2ccc(NC(=O)c3ccccc3C(=O)O)cc2)c(C)c1 | > 63.7 µg/mL

Row | Compound | solubility kinetic
41 | CCOc1ccc(NC(=O)COc2ccc3c(c2)OCO3)cc1 | 5.7 µg/mL (≈ 18.1 µM)
42 | Cc1ccc(N2C(=O)C3CCCN3C2=S)c(C)c1 (centres undefined) | > 39.1 µg/mL
43 | COC(=O)c1cc(C(=O)NC(C)(C)CC(C)(C)C)cc([N+](=O)[O-])c1 | 17.8 µg/mL (≈ 52.9 µM)
44 | CCCCOc1ccc(Cn2c(=O)oc3ccccc32)cc1 | < 0.6 µg/mL
45 | Cc1ccc(CSC2=NCCN2C(=O)c2ccc([N+](=O)[O-])cc2)cc1 | 6.3 µg/mL (≈ 17.7 µM)
46 | Cc1cc(C(=O)OCC(=O)Nc2cccc([N+](=O)[O-])c2)c(C)o1 | 3.8 µg/mL (≈ 11.9 µM)
47 | c1ccc(-c2cn(-c3ccccc3)c3ncnc(N4CCCCC4)c23)cc1 | < 0.2 µg/mL
48 | CC(C)c1ccccc1NC(=O)C1CC(=O)N(C2CCCC2)C1 (centres undefined) | > 47.2 µg/mL
49 | C/C(N)=C(/C#N)C(=O)COC(=O)Cc1coc2cc(C)ccc12 | 10.2 µg/mL (≈ 32.7 µM)
50 | C=CCOn1c(=O)c(-c2ccc(Cl)cc2)[n+]([O-])c2ccccc21 | 0.8 µg/mL (≈ 2.43 µM)
51 | CCN1CCN(C(=O)/C=C/c2ccc(OC)c(OC)c2)CC1 | > 45.7 µg/mL
52 | O=S(=O)(c1ccc2[nH]ccc2c1)N1CCCCCC1 | > 41.8 µg/mL
53 | CC1=C(C#N)S(=O)(=O)C(C#N)C(c2ccccc2)C1 (centres undefined) | 30.1 µg/mL (≈ 111 µM)
54 | O=C(Nc1ccc(Cn2ccnc2)cc1)c1cccc(C(F)(F)F)c1 | 1.6 µg/mL (≈ 4.63 µM)
55 | CN(C)c1ccc(C(=O)OCC(=O)Nc2cccc(S(=O)(=O)N3CCCC3)c2)cc1 | 5.5 µg/mL (≈ 12.7 µM)
56 | O=C(NCCNC(=O)c1ccccc1Cl)c1ccco1 | 39.7 µg/mL (≈ 136 µM)
57 | O=C(Nc1cccc(Cl)c1)C1=CC=CN2CCS(=O)(=O)N=C12 | 7.1 µg/mL (≈ 21 µM)
58 | Cc1nn(CC(=O)NCc2cccnc2)c(C)c1[N+](=O)[O-] | > 43.4 µg/mL
59 | CCOc1ccccc1NC(=O)N1CCCN(c2ncccc2C#N)CC1 | 45.7 µg/mL (≈ 125 µM)
